# Experiments:
# green foxtail [1] = test: Test Example 5: herbicidal effect by foliage application, plastic box (Table 20, symbol G); type: in vivo, green foxtail (Setaria viridis); details: 320 g/ha, foliage application after 14-day growth, evaluated three weeks after application
# How it was run: (§1)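 Sow seeds spot-wise in sterilized diluvial soil; cover with ~1.5 cm soil. Grow 14 days in greenhouse, 25° C. to 30° C. Spray foliage with emulsion diluted to predetermined amount. Rate effect after 3 weeks.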
# lambsquarters = test: Test Example 5: herbicidal effect by foliage application, plastic box (Table 20, symbol O); type: in vivo, lambsquarters (Chenopodium album); details: 320 g/ha, foliage application after 14-day growth, evaluated three weeks after application
# How it was run: as §1
# southern crabgrass = test: Test Example 4: herbicidal effect by soil treatment (Table 19, symbol F); type: in vivo, southern crabgrass (Digitaria ciliaris); details: amount of applied herbicide 320 g/ha
# How it was run: (§2)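 Applied as a water-diluted emulsion, the compound was sprayed onto soil covering newly sown seeds. Evaluation came three weeks after application, in a greenhouse held at 25° C. to 30° C.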
# oval-leafed pondweed = test: Test Example 1: herbicidal activity, application before weed generation under submerged conditions (Table 16, symbol C); type: in vivo, oval-leafed pondweed (Monochoria vaginalis); details: amount of applied herbicide 320 g/ha
# How it was run: (§3)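 Alluvial soil was flooded to 4 cm depth, weed seeds were sown mixed and 2.5-leaf rice seedlings were transplanted. On sowing day, the compound's emulsion, diluted in water to a set dose, was applied to the water surface. Plants grew at 25–30 °C and were scored 0–5 after three weeks.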
# windgrass [2] = test: Test Example 4: herbicidal effect by soil treatment (Table 19, symbol L); type: in vivo, windgrass (Apera spica-venti); details: amount of applied herbicide 320 g/ha
# How it was run: as §2
# barnyard grass [3] = test: Test Example 3: herbicidal effect by foliage application, Wagner pot (Table 18, symbol H); type: in vivo, barnyard grass (Echinochloa crus-galli); details: 320 g/ha
# How it was run: (§4)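 Plants were sown in alluvial soil held under 0.1–0.5 cm standing water and grown 14 days in a greenhouse at 25–30 °C. An emulsifiable formulation, water-diluted to the set dose, was then sprayed onto the foliage, and effects were scored three weeks later using previously defined criteria.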
# rice flat sedge = test: Test Example 3: herbicidal effect by foliage application, Wagner pot (Table 18, symbol E); type: in vivo, rice flat sedge (Cyperus iria); details: 320 g/ha
# How it was run: as §4
# Japanese bulrush = test: Test Example 1: herbicidal activity, application before weed generation under submerged conditions (Table 16, symbol B); type: in vivo, Japanese bulrush (Schoenoplectus juncoides); details: amount of applied herbicide 320 g/ha
# How it was run: as §3
# velvetleaf = test: Test Example 4: herbicidal effect by soil treatment (Table 19, symbol M); type: in vivo, velvetleaf (Abutilon theophrasti); details: amount of applied herbicide 320 g/ha
# How it was run: as §2
# wild oat = test: Test Example 5: herbicidal effect by foliage application, plastic box (Table 20, symbol I); type: in vivo, wild oat (Avena fatua); details: 320 g/ha, foliage application after 14-day growth, evaluated three weeks after application
# How it was run: as §1
# barnyard grass [4] = test: Test Example 4: herbicidal effect by soil treatment (Table 19, symbol H); type: in vivo, barnyard grass (Echinochloa crus-galli); details: amount of applied herbicide 320 g/ha
# How it was run: as §2
# persian speedwell = test: Test Example 5: herbicidal effect by foliage application, plastic box (Table 20, symbol R); type: in vivo, Persian speedwell (Veronica persica); details: 320 g/ha, foliage application after 14-day growth, evaluated three weeks after application
# How it was run: as §1
# barnyard grass [5] = test: Test Example 5: herbicidal effect by foliage application, plastic box (Table 20, symbol H); type: in vivo, barnyard grass (Echinochloa crus-galli); details: 320 g/ha, foliage application after 14-day growth, evaluated three weeks after application
# How it was run: as §1
# redroot pigweed = test: Test Example 4: herbicidal effect by soil treatment (Table 19, symbol N); type: in vivo, redroot pigweed (Amaranthus retroflexus); details: amount of applied herbicide 320 g/ha
# How it was run: as §2
# Chinese sprangletop = test: Test Example 3: herbicidal effect by foliage application, Wagner pot (Table 18, symbol D); type: in vivo, chinese sprangletop (Leptochloa chinensis); details: 320 g/ha
# How it was run: as §4
# windgrass [6] = test: Test Example 5: herbicidal effect by foliage application, plastic box (Table 20, symbol L); type: in vivo, windgrass (Apera spica-venti); details: 320 g/ha, foliage application after 14-day growth, evaluated three weeks after application
# How it was run: as §1
# green foxtail [7] = test: Test Example 4: herbicidal effect by soil treatment (Table 19, symbol G); type: in vivo, green foxtail (Setaria viridis); details: amount of applied herbicide 320 g/ha
# How it was run: as §2
SMILES,herbicidal effect on G: green foxtail (evaluation grade 0-5) (green foxtail [1]),herbicidal effect on O: lambsquarters (evaluation grade 0-5) (lambsquarters),"Herbicidal effect by soil treatment, F: southern crabgrass (southern crabgrass)","Herbicidal effect, C: oval-leafed pondweed (oval-leafed pondweed)","Herbicidal effect by soil treatment, L: windgrass (windgrass [2])",herbicidal effect on barnyard grass (H) (barnyard grass [3]),herbicidal effect on rice flat sedge (E) (rice flat sedge),"Herbicidal effect, B: Japanese bulrush (Japanese bulrush)","Herbicidal effect by soil treatment, M: velvetleaf (velvetleaf)",herbicidal effect on I: wild oat (evaluation grade 0-5) (wild oat),"Herbicidal effect by soil treatment, H: barnyard grass (barnyard grass [4])",herbicidal effect on R: persian speedwell (evaluation grade 0-5) (persian speedwell),herbicidal effect on H: barnyard grass (evaluation grade 0-5) (barnyard grass [5]),"Herbicidal effect by soil treatment, N: redroot pigweed (redroot pigweed)",herbicidal effect on Chinese sprangletop (D) (Chinese sprangletop),herbicidal effect on L: windgrass (evaluation grade 0-5) (windgrass [6]),"Herbicidal effect by soil treatment, G: green foxtail (green foxtail [7])"
CCCC(=O)Oc1c(C)nn(C)c(=O)c1-c1c(-c2ccc(OC)cc2)sc2c(Cl)cccc12 [4-024],4 (Herbicidal rate of 70% or more and less than 90%),3 (Herbicidal rate of 40% or more and less than 70%),0 (Herbicidal rate of 5% or less (almost no effect)),3 (Herbicidal rate of 40% or more and less than 70%),0 (Herbicidal rate of 5% or less (almost no effect)),4 (Herbicidal rate of 70% or more and less than 90%),5 (Herbicidal rate of 90% or more (almost completely withered)),2 (Herbicidal rate of 20% or more and less than 40%),0 (Herbicidal rate of 5% or less (almost no effect)),0 (Herbicidal rate of 5% or less (almost no effect)),0 (Herbicidal rate of 5% or less (almost no effect)),4 (Herbicidal rate of 70% or more and less than 90%),4 (Herbicidal rate of 70% or more and less than 90%),3 (Herbicidal rate of 40% or more and less than 70%),3 (Herbicidal rate of 40% or more and less than 70%),4 (Herbicidal rate of 70% or more and less than 90%),2 (Herbicidal rate of 20% or more and less than 40%)
CCCC(=O)Oc1c(C)nn(C)c(=O)c1-c1c(-c2ccccc2OCC)sc2c(Cl)cccc12 [4-026],5 (Herbicidal rate of 90% or more (almost completely withered)),3 (Herbicidal rate of 40% or more and less than 70%),3 (Herbicidal rate of 40% or more and less than 70%),4 (Herbicidal rate of 70% or more and less than 90%),0 (Herbicidal rate of 5% or less (almost no effect)),5 (Herbicidal rate of 90% or more (almost completely withered)),5 (Herbicidal rate of 90% or more (almost completely withered)),3 (Herbicidal rate of 40% or more and less than 70%),0 (Herbicidal rate of 5% or less (almost no effect)),0 (Herbicidal rate of 5% or less (almost no effect)),3 (Herbicidal rate of 40% or more and less than 70%),4 (Herbicidal rate of 70% or more and less than 90%),5 (Herbicidal rate of 90% or more (almost completely withered)),2 (Herbicidal rate of 20% or more and less than 40%),5 (Herbicidal rate of 90% or more (almost completely withered)),5 (Herbicidal rate of 90% or more (almost completely withered)),3 (Herbicidal rate of 40% or more and less than 70%)
CCCC(=O)Oc1c(C)nn(C)c(=O)c1-c1c(-c2ccc(C#N)cc2)sc2c(Cl)cccc12 [4-032],0 (Herbicidal rate of 5% or less (almost no effect)),3 (Herbicidal rate of 40% or more and less than 70%),0 (Herbicidal rate of 5% or less (almost no effect)),0 (Herbicidal rate of 5% or less (almost no effect)),0 (Herbicidal rate of 5% or less (almost no effect)),4 (Herbicidal rate of 70% or more and less than 90%),5 (Herbicidal rate of 90% or more (almost completely withered)),2 (Herbicidal rate of 20% or more and less than 40%),0 (Herbicidal rate of 5% or less (almost no effect)),0 (Herbicidal rate of 5% or less (almost no effect)),0 (Herbicidal rate of 5% or less (almost no effect)),5 (Herbicidal rate of 90% or more (almost completely withered)),0 (Herbicidal rate of 5% or less (almost no effect)),3 (Herbicidal rate of 40% or more and less than 70%),3 (Herbicidal rate of 40% or more and less than 70%),4 (Herbicidal rate of 70% or more and less than 90%),0 (Herbicidal rate of 5% or less (almost no effect))
CCCC(=O)Oc1c(C)nn(C)c(=O)c1-c1c(-c2ccc(F)cc2OCC)sc2c(Cl)cccc12 [4-036],5 (Herbicidal rate of 90% or more (almost completely withered)),2 (Herbicidal rate of 20% or more and less than 40%),4 (Herbicidal rate of 70% or more and less than 90%),4 (Herbicidal rate of 70% or more and less than 90%),0 (Herbicidal rate of 5% or less (almost no effect)),5 (Herbicidal rate of 90% or more (almost completely withered)),5 (Herbicidal rate of 90% or more (almost completely withered)),3 (Herbicidal rate of 40% or more and less than 70%),2 (Herbicidal rate of 20% or more and less than 40%),0 (Herbicidal rate of 5% or less (almost no effect)),3 (Herbicidal rate of 40% or more and less than 70%),4 (Herbicidal rate of 70% or more and less than 90%),5 (Herbicidal rate of 90% or more (almost completely withered)),4 (Herbicidal rate of 70% or more and less than 90%),5 (Herbicidal rate of 90% or more (almost completely withered)),4 (Herbicidal rate of 70% or more and less than 90%),3 (Herbicidal rate of 40% or more and less than 70%)
CCCC(=O)Oc1c(C)nn(C)c(=O)c1-c1c(-c2ccc(C(F)(F)F)cc2)sc2c(F)cccc12 [4-045],0 (Herbicidal rate of 5% or less (almost no effect)),3 (Herbicidal rate of 40% or more and less than 70%),0 (Herbicidal rate of 5% or less (almost no effect)),0 (Herbicidal rate of 5% or less (almost no effect)),3 (Herbicidal rate of 40% or more and less than 70%),5 (Herbicidal rate of 90% or more (almost completely withered)),5 (Herbicidal rate of 90% or more (almost completely withered)),2 (Herbicidal rate of 20% or more and less than 40%),0 (Herbicidal rate of 5% or less (almost no effect)),0 (Herbicidal rate of 5% or less (almost no effect)),0 (Herbicidal rate of 5% or less (almost no effect)),5 (Herbicidal rate of 90% or more (almost completely withered)),2 (Herbicidal rate of 20% or more and less than 40%),4 (Herbicidal rate of 70% or more and less than 90%),3 (Herbicidal rate of 40% or more and less than 70%),4 (Herbicidal rate of 70% or more and less than 90%),0 (Herbicidal rate of 5% or less (almost no effect))

# Source: patent US20230085307A1, “PYRIDAZINONE COMPOUND AND HERBICIDE” (NISSAN CHEMICAL CORPORATION, priority 2019, published 2023)
